Some test systems named below: NCI-H23 lung; SF-539 CNS; LOX IMVI melanoma; CAKI-1 renal; SF-295 CNS; HCT-15 colon; TK-10 renal; NCI/ADR-RES ovarian; HCC-2998 colon; SW-620 colon.
Common to all, as to assay: inhibition of tumour cell growth, NCI panel, 48 h

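Cells were grown in 96-well plates and exposed to each compound for 48 hours at five concentrations; endpoints were interpolated linearly between bracketing concentrations, or set to the highest concentration if not reached. TGI marks complete inhibition of growth.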 A value given as a limit tells only on which side of the number the result lay.

`Cc1ccc2c(c1)Nc1ccccc1P2(=O)O`: the TGI in the assay with NCI-H23 lung, in the assay with SF-539 CNS, in the assay on LOX IMVI melanoma, in the assay with CAKI-1 renal, with SF-295 CNS and in the assay on HCT-15 colon was over 100 µM each time. Also, the TGI in the assay with TK-10 renal, with NCI/ADR-RES ovarian, in the assay with HCC-2998 colon and in the assay with SW-620 colon was over 100 µM each time.
Consider `Cc1ccsc1/C=N/Nc1cc(C)c2ccccc2n1`, for which the TGI in the assay with NCI-H23 lung was determined as 31.3 µM; with LOX IMVI melanoma it was 25.9 µM; with CAKI-1 renal, 41.1 µM; with SF-295 CNS it was 37.8 µM; in the assay on HCT-15 colon, 28.2 µM; in the assay with TK-10 renal it was 31.9 µM. The TGI turned out to be 31 µM in the assay with NCI/ADR-RES ovarian, 31.7 µM in the assay on HCC-2998 colon and 48.7 µM in the assay on SW-620 colon.
Take `O=[N+]([O-])c1ccc(Nc2cccc3c2[nH]c2c(-c4ccccc4)nccc23)c([N+](=O)[O-])c1`: the TGI in the assay with NCI-H23 lung, in the assay with SF-539 CNS, in the assay on LOX IMVI melanoma, in the assay on SF-295 CNS, in the assay on HCT-15 colon and in the assay with NCI/ADR-RES ovarian was over 100 µM each time. Also, the TGI in the assay on HCC-2998 colon and in the assay with SW-620 colon was over 100 µM throughout.
For `CCc1n[nH]c(=O)[nH]1`, the TGI in the assay on NCI-H23 lung, in the assay with SF-539 CNS, in the assay on LOX IMVI melanoma, with CAKI-1 renal, in the assay on SF-295 CNS and with HCT-15 colon was over 100 µM each time. For the same molecule, the TGI in the assay with TK-10 renal, in the assay with NCI/ADR-RES ovarian and with HCC-2998 colon was over 100 µM in each case.
As to `Cc1oc2nc(N(C)C)n3cnnc3c2c1C`, the TGI in the assay with NCI-H23 lung, in the assay on SF-539 CNS, with CAKI-1 renal, in the assay on SF-295 CNS, in the assay on HCT-15 colon and with TK-10 renal was over 100 µM in each case. In addition, the TGI with NCI/ADR-RES ovarian, with HCC-2998 colon and with SW-620 colon was over 100 µM throughout.
`N#Cc1c(N2CCCC2)nsc1Nc1ccccc1`: the TGI in the assay with NCI-H23 lung, in the assay on SF-539 CNS, in the assay with LOX IMVI melanoma, in the assay with SF-295 CNS, in the assay on HCT-15 colon and with TK-10 renal was over 100 µM in each case. Also, the TGI with NCI/ADR-RES ovarian, in the assay with HCC-2998 colon and in the assay on SW-620 colon was over 100 µM throughout.
As to `CCN(CC)C(=O)c1cc([N+](=O)[O-])c(=O)n2c1[nH]c1ccccc12`, the TGI in the assay on NCI-H23 lung, with SF-539 CNS, with LOX IMVI melanoma, in the assay with CAKI-1 renal, in the assay with SF-295 CNS and in the assay on TK-10 renal was over 100 µM throughout. In addition, the TGI with NCI/ADR-RES ovarian, with HCC-2998 colon and in the assay with SW-620 colon was over 100 µM in each case.
In the case of `COC(=O)/C=C\C(C#N)(C#N)N=Cc1ccc(Br)cc1`, the TGI with NCI-H23 lung was 49.5 µM; in the assay on LOX IMVI melanoma, 5.26 µM; with CAKI-1 renal, 5.47 µM; in the assay on SF-295 CNS, 34.7 µM; in the assay with HCT-15 colon it was 11.8 µM; in the assay with TK-10 renal, 6.59 µM. Also, the values for the TGI with NCI/ADR-RES ovarian, in the assay with HCC-2998 colon and in the assay with SW-620 colon were 76 µM, 32.1 µM and over 22.4 µM, respectively.
Consider `Cc1cc(S(=O)(=O)Nc2n[nH]c(Nc3ccccc3)n2)c(SSc2cc(Cl)c(C)cc2S(=O)(=O)Nc2n[nH]c(Nc3ccccc3)n2)cc1Cl`, for which the TGI is over 100 µM in the assay with NCI-H23 lung; over 10 µM in the assay on SF-539 CNS; over 100 µM in the assay with LOX IMVI melanoma; over 100 µM in the assay with CAKI-1 renal; over 100 µM in the assay with SF-295 CNS; over 100 µM in the assay on HCT-15 colon. In addition, the TGI in the assay with TK-10 renal, with NCI/ADR-RES ovarian and in the assay with SW-620 colon was over 100 µM each time.
For the molecule `Clc1ncnc2c1nc(C#Cc1ccccc1)n2C1CCCCO1` (stereo not drawn), the TGI in the assay on NCI-H23 lung came out at 4.15 µM; in the assay with SF-539 CNS, 4.28 µM; with LOX IMVI melanoma, 4.79 µM; in the assay with CAKI-1 renal it was 3.91 µM; in the assay on SF-295 CNS it was 16.5 µM; in the assay with TK-10 renal, 5.11 µM. Besides, the figures for the TGI with NCI/ADR-RES ovarian, in the assay on HCC-2998 colon and with SW-620 colon were 7.01 µM, 3.54 µM and 4.94 µM, respectively.
In the case of `COc1cc(-c2nc(SC)nc3c2CCc2ccccc2-3)cc(OC)c1OC`, the TGI in the assay on NCI-H23 lung, in the assay with SF-539 CNS, in the assay on LOX IMVI melanoma, with SF-295 CNS, with NCI/ADR-RES ovarian and with HCC-2998 colon was over 100 µM throughout. In the assay with SW-620 colon, the TGI is over 100 µM.
Consider `Cc1cc(OCc2nnc3n2N=C(c2cc(F)c(Cl)cc2Cl)/C(=C/c2ccc(-c4ccc(Cl)cc4)o2)S3)ccc1Cl`, for which the TGI with NCI-H23 lung, in the assay with LOX IMVI melanoma, in the assay with CAKI-1 renal, in the assay with SF-295 CNS, in the assay on HCT-15 colon and in the assay with TK-10 renal was over 50 µM throughout. Also, the TGI with NCI/ADR-RES ovarian, with HCC-2998 colon and with SW-620 colon was over 50 µM in each case.
With `NNS(=O)(=O)c1ccc(/C=C2\NC(=O)NC2=O)cc1`, the TGI with NCI-H23 lung, in the assay with LOX IMVI melanoma, in the assay with CAKI-1 renal, in the assay on SF-295 CNS, with HCT-15 colon and with TK-10 renal was over 100 µM each time. Besides, the TGI with NCI/ADR-RES ovarian, in the assay on HCC-2998 colon and in the assay on SW-620 colon was over 100 µM in each case.
As to `COc1ccc(C2NC(N)=C(C#N)C3=C2C(C)CCC3)cc1OC` (stereo not drawn), the TGI with NCI-H23 lung, in the assay with SF-539 CNS, in the assay on LOX IMVI melanoma, with CAKI-1 renal, in the assay on SF-295 CNS and in the assay on HCT-15 colon was over 100 µM in each case. The TGI in the assay on TK-10 renal, with NCI/ADR-RES ovarian and in the assay on SW-620 colon was over 100 µM throughout.
On to `CC(C)N1[C@@H]2CCCC[C@H]2N(C(C)C)[P+]1=O`, for which the TGI with NCI-H23 lung, with SF-539 CNS, in the assay on CAKI-1 renal, in the assay on SF-295 CNS, with HCT-15 colon and in the assay with TK-10 renal was over 100 µM in each case. Moreover, the TGI in the assay on NCI/ADR-RES ovarian, with HCC-2998 colon and with SW-620 colon was over 100 µM in each case.

These data come from PubChem BioAssay (NCI).
